Reference: ChEMBL document CHEMBL5154640, “Novel naphthyl based 1,2,4-trioxanes: Synthesis and in vivo efficacy in the Plasmodium yoelii nigeriensis in Swiss mice” (2021)
Active and inactive are the calls of the source. The rule behind the calls is not given here.

Experiments:
[1] = system: Plasmodium yoelii nigeriensis; test: Antimalarial activity against Plasmodium yoelii nigeriensis infected in Swiss mouse assessed as suppression of parasitemia at 96 mg/kg, im measured after 4 days relative to control; format: functional; conditions: time 4 day
[2] = system: Plasmodium yoelii nigeriensis; test: Antimalarial activity against Plasmodium yoelii nigeriensis infected in Swiss mouse assessed as suppression of parasitemia at 96 mg/kg, po measured after 4 days relative to control; format: functional; conditions: time 4 day
[3] = system: Plasmodium yoelii nigeriensis; test: Antimalarial activity against Plasmodium yoelii nigeriensis infected in Swiss mouse assessed as survival at 48 mg/kg, im measured after 4 days relative to control; format: functional, organism-based; conditions: time 4.0 day
[4] = system: Plasmodium yoelii nigeriensis; test: Antimalarial activity against Plasmodium yoelii nigeriensis infected in Swiss mouse assessed as suppression of parasitemia at 24 mg/kg, im measured after 4 days relative to control; format: functional; conditions: time 4 day
[5] = system: Plasmodium yoelii nigeriensis; test: Antimalarial activity against Plasmodium yoelii nigeriensis infected in Swiss mouse assessed as suppression of parasitemia at 48 mg/kg, im measured after 4 days relative to control; format: functional; conditions: time 4 day
[6] = system: Plasmodium yoelii nigeriensis; test: Antimalarial activity against Plasmodium yoelii nigeriensis infected in Swiss mouse assessed as suppression of parasitemia at 48 mg/kg, po measured after 4 days relative to control; format: functional; conditions: time 4 day
[7] = system: Plasmodium yoelii nigeriensis; test: Antimalarial activity against Plasmodium yoelii nigeriensis infected in Swiss mouse assessed as survival at 96 mg/kg, po measured after 4 days relative to control; format: functional, organism-based; conditions: time 4.0 day
[8] = system: Plasmodium yoelii nigeriensis; test: Antimalarial activity against Plasmodium yoelii nigeriensis infected in Swiss mouse assessed as survival at 48 mg/kg, po measured after 4 days relative to control; format: functional, organism-based; conditions: time 4.0 day
[9] = system: Plasmodium yoelii nigeriensis; test: Antimalarial activity against Plasmodium yoelii nigeriensis infected in Swiss mouse assessed as suppression of parasitemia at 24 mg/kg, po measured after 4 days relative to control; format: functional; conditions: time 4 day

Row | SMILES | Activity [1] [%] | Activity [2] [%] | also measured
1 | C=C(c1ccc(OCCO)c2ccccc12)C1COC2(CCCCC2)OO1 (stereo not given) | 100 | 75.34 | 
2 | C=C(c1ccc(O[Si](C)(C)C(C)(C)C)c2ccccc12)C1COC2(CCCC2)OO1 (stereo not given) |  | 27.71 | 
3 | C=C(c1ccc(O[Si](C)(C)C(C)(C)C)c2ccccc12)C1COC(C)(C)OO1 (stereo not given) |  | 14.7 | 
4 | C[C@@H]1CC[C@H]2[C@@H](C)C(=O)O[C@@H]3O[C@@]4(C)CC[C@@H]1[C@]32OO4 [ARTEMISININ] |  |  | Activity [3]: Active; Activity [4]: 100%; Activity [5]: 100%; Activity [6]: 100%
5 | C/C(=C/CO)C12OOC3(OC1CC(=O)c1ccccc12)C1CC2CC(C1)CC3C2 (stereo not given) | 35.89 | 45.68 | 
6 | C=C(c1ccc(O[Si](C)(C)C(C)(C)C)c2ccccc12)C1COC2(CCCCC2)OO1 (stereo not given) |  | 45.56 | 
7 | C/C(=C/CO)C12OOC(C)(C)OC1CC(=O)c1ccccc12 (stereo not given) | 37.81 | 53.17 | 
8 | C=C(c1ccc(OCCO)c2ccccc12)C1COC2(OO1)C1CC3CC(C1)CC2C3 (stereo not given) | 20.54 | 24.1 | 
9 | C=C(c1ccc(OC(C)(C)CO)c2ccccc12)C1COC2(CCCCC2)OO1 (stereo not given) | 100 | 100 | Activity [7]: Active
10 | C=C(c1ccc(OCCO)c2ccccc12)C1COC(C)(C)OO1 (stereo not given) | 40 | 22.89 | 
11 | C/C(=C/CO)C12OOC3(CCCCC3)OC1CC(=O)c1ccccc12 (stereo not given) | 51.63 | 52.78 | 
12 | C=C(c1ccc(OC(C)(C)CO)c2ccccc12)C1COC2(CCCC2)OO1 (stereo not given) | 100 | 100 | Activity [7]: Active
13 | C=C(c1ccc(OCCO)c2ccccc12)C1COC2(CCCC2)OO1 (stereo not given) | 100 | 57.23 | 
14 | C/C(=C/CO)C12OOC3(CCCC3)OC1CC(=O)c1ccccc12 (stereo not given) | 37.43 | 39.17 | 
15 | C=C(c1ccc(O[Si](C)(C)C(C)(C)C)c2ccccc12)C1COC2(OO1)C1CC3CC(C1)CC2C3 (stereo not given) |  | 27.71 | 
16 | C=C(c1ccc(OC(C)(C)CO)c2ccccc12)C1COC(C)(C)OO1 (stereo not given) | 48.27 | 24.76 | 
17 | C=C(c1ccc(OC(C)(C)CO)c2ccccc12)C1COC2(OO1)C1CC3CC(C1)CC2C3 (stereo not given) | 100 | 100 | Activity [8]: Active; Activity [4]: 27.68%; Activity [7]: Active; Activity [9]: 100%; Activity [5]: 70.24%; Activity [6]: 100%
